US12509460B2 (Skyhawk Therapeutics, Inc., priority 2019, dated 2025)
Like-named read-outs stand apart in the source and are kept apart here.

Assays:
[1] = Quantitative splicing assay (HTT), qPCR; type: cell-based, human; conditions: Homo sapiens, GM04724, 24 h, GM04724 lymphoblasts, read-out: HTT Splicing: E49-50 EC50
Outline: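 TaqMan qPCR on cell-lysate cDNA quantifies cryptic-exon inclusion from HTT intron 49. Lymphoblasts plated at 50,000 cells/well had received compound for 24 h, 0.15 nM-2.5 uM range, 0.1% DMSO.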

[2] = test system: MDR1-MDCK cell monolayers; assay: Blood-brain-barrier (BBB) penetration potential via MDCK-MDR1 permeability assay
MDR1 = assay: as above; conditions: dog, MDCK-MDR1, pH 7.4, MDCK-MDR1: Efflux
MDR1 (P-gp) = assay: as above; conditions: dog; for Papp A→B at 120 min, 5 μM: MDCK-MDR1, pH 7.4, MDCK-MDR1: Papp A-B; for Papp B→A at 120 min, 5 μM: MDCK-MDR1, pH 7.4, MDCK-MDR1: Papp B-A
[3] = test system: SMN FL and SMN Δ7 in spinal muscular atrophy (SMA) patient fibroblasts (GM03813, Coriell); assay: Quantitative splicing assay (SMN), qPCR; type: cell-based, human; conditions: Homo sapiens, Fibroblast, 24 h, read-out: SMN2 Splicing FL EC50
Procedure: Spinal muscular atrophy (SMA) patient fibroblasts (GM03813, Coriell) are plated in 96-well plates at 50,000 cells/well. […] Treated cells are lysed and cDNA synthesized using the Fast Advanced Cells-to-Ct kit (Thermofisher A35378) according to the manufacturer's instructions. 2 μL of each cDNA are used in qPCR reactions. […] Reactions are run in a Quant Studio 6 qPCR instrument with default settings.

[4] = test system: mHTT protein in GM04724 (CAG 70/20) Huntington's disease patient lymphoblast cells; assay: mHTT protein assay, 2B7-MW1 assay via Mesoscale Discovery (MSD); type: cell-based, human
Outline: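 Signal from the 2B7-MW1 antibody pair on MSD, rising with polyQ length and smaller HTT fragments, measured mHTT after 48 h compound exposure (0.6 nM–10 μM) in GM04724 cells. A parallel replicate plate gave CellTiter Glo viability.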

[5] = test system: SMN protein in spinal muscular atrophy (SMA) patient fibroblasts (GM03813, Coriell); assay: SMN protein assay, Mesoscale Discovery (MSD); type: cell-based, human; conditions: for EC50: read-out: SMN2 protein EC50
Outline: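 Absolute SMN levels were quantified by MSD against an SMN protein standard curve (1 μg/ml to 19.5 pg/ml) run on each plate. Samples were lysates of GM03813 patient fibroblasts (7000 cells/well) treated 48 hours with compound doses from 2.5 μM down to 0.6 nM.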

[6] = SMA patient fibroblasts GM03813, 24 h, qPCR
[7] = GM04724 Huntington's disease patient lymphoblasts
[8] = SMA patient fibroblasts GM03813, 48 hours, MSD
[9] = SMA patient fibroblasts (GM03813)
[10] = GM04724 (CAG 70/20) Huntington's disease patient lymphoblasts
[11] = SMA patient fibroblasts (GM03813), 48 hours

Structure (SMILES) | EC50 ([1]; qPCR) [nM] | MDCK-MDR1: % Recov A-B ([2]; A-B direction) [%] | MDCK-MDR1: % Recov B-A ([2]; B-A direction) [%] | efflux ratio at 120 min, 5 μM (MDR1; efflux ratio) | Papp A→B at 120 min, 5 μM (MDR1 (P-gp); A-B direction) [×10⁻⁶ cm/s] | Papp B→A at 120 min, 5 μM (MDR1 (P-gp); B-A direction) [×10⁻⁶ cm/s] | EC50 [3, 6] [nM] | EC50 [4, 7] [nM] | EC50 [5, 8] [nM] | EC50 [1] [nM] | MDCK-MDR1: % Recov A-B ([2]; A-B) [%] | MDCK-MDR1: % Recov B-A ([2]; B-A) [%] | efflux ratio at 120 min, 5 μM (MDR1) | Papp A→B at 120 min, 5 μM (MDR1 (P-gp); A-B) [×10⁻⁶ cm/s] | Papp B→A at 120 min, 5 μM (MDR1 (P-gp); B-A) [×10⁻⁶ cm/s] | EC50 [3, 9] [nM] | EC50 [4, 10] [nM] | EC50 [5, 11] [nM] | SMN2 protein EC50 [5, 11]
CN(c1ccc(-c2cc3c(=O)n(C)cnc3cc2O)nn1)[C@H]1C[C@@H]2CC[C@@H](N2)[C@H]1F [Compound 85B, 6-(6-(((1R,2R,3S,5S)-2-fluoro-8-azabicyclo[3.2.1]octan-3-yl)(methyl)amino)pyridazin-3-yl)-7-hydroxy-3-methylquinazolin-4(3H)-one] | 0.01 to 15 | 98 | 103 | 68 | 0.71 | 48.5 | 0.01 to 15 | 0.01 to 15 | 0.01 to 15 |  |  |  |  |  |  |  |  |  | 
CN(c1ccc(-c2cc3nccnc3cc2O)nn1)[C@H]1C[C@@H]2CC[C@@H](N2)[C@H]1F [Compound 88B, 7-(6-(((1R,2R,3S,5S)-2-fluoro-8-azabicyclo[3.2.1]octan-3-yl)(methyl)amino)pyridazin-3-yl)quinoxalin-6-ol] | 16 to 50 | 84 | 93 | 7 | 6.88 | 50.5 | 16 to 50 | 16 to 50 | 0.01 to 15 |  |  |  |  |  |  |  |  |  | 
CN(c1ccc(-c2ccc(-n3nccn3)cc2O)nn1)[C@@H]1C[C@H]2CC[C@H](N2)[C@@H]1F [Compound 90A, 2-(6-(((1S,2S,3R,5R)-2-fluoro-8-azabicyclo[3.2.1]octan-3-yl)(methyl)amino)pyridazin-3-yl)-5-(2H-1,2,3-triazol-2-yl)phenol] | 0.01 to 15 | 41 | 69 | 3 | 6.97 | 22.5 | 0.01 to 15 | 0.01 to 15 | 0.01 to 15 |  |  |  |  |  |  |  |  |  | 
CN(c1ccc(-c2ccc(-n3nccn3)cc2O)nn1)[C@H]1C[C@@H]2CC[C@@H](N2)[C@H]1F [Compound 90B, 2-(6-(((1R,2R,3S,5S)-2-fluoro-8-azabicyclo[3.2.1]octan-3-yl)(methyl)amino)pyridazin-3-yl)-5-(2H-1,2,3-triazol-2-yl)phenol] | 0.01 to 15 | 43 | 67 | 2 | 6.56 | 16.1 | 0.01 to 15 | 0.01 to 15 | 16 to 50 |  |  |  |  |  |  |  |  |  | 
CN(c1ccc(-c2cc3c(=O)n(C)ccc3cc2O)nn1)[C@@H]1C[C@H]2CC[C@@H]([C@@H]1F)N2C [Compound 98A, 7-(6-(((1S,2S,3R,5R)-2-fluoro-8-methyl-8-azabicyclo[3.2.1]octan-3-yl)(methyl)amino)pyridazin-3-yl)-6-hydroxy-2-methylisoquinolin-1(2H)-one] |  |  |  |  |  |  |  |  |  | 101 to 500 | 86 | 105 | 16 | 4.11 | 64.7 | 101 to 500 | 101 to 500 | 16 to 50 | 
CN(c1ccc(-c2cc3c(=O)n(C)ccc3cc2O)nn1)[C@H]1C[C@@H]2CC[C@H]([C@H]1F)N2C [Compound 98B, 7-(6-(((1R,2R,3S,5S)-2-fluoro-8-methyl-8-azabicyclo[3.2.1]octan-3-yl)(methyl)amino)pyridazin-3-yl)-6-hydroxy-2-methylisoquinolin-1(2H)-one] |  |  |  |  |  |  |  |  |  | 16 to 50 | 88 | 87 | 10 | 5.01 | 52.6 | 16 to 50 | 16 to 50 | 16 to 50 | 
Cc1nc2cc(-c3ccc(N(C)[C@H]4C[C@@H]5CC[C@H]([C@H]4F)N5C)nn3)c(O)cc2c(=O)n1C [Compound 105B, 7-(6-(((1R,2R,3S,5S)-2-fluoro-8-methyl-8-azabicyclo[3.2.1]octan-3-yl)(methyl)amino)pyridazin-3-yl)-6-hydroxy-2,3-dimethylquinazolin-4(3H)-one] |  |  |  |  |  |  |  |  |  | 51 to 100 | 114 | 119 | 50 | 1.28 | 64.3 | 101 to 500 | 16 to 50 |  | E (501 ≤ E ≤ 10.000)
CN(c1ccc(-c2cc3oc(C(=O)N4CCC4)cc3cc2O)nn1)[C@H]1C[C@@H]2CC[C@@H](N2)[C@H]1F [Compound 112B, azetidin-1-yl(6-(6-(((1R,2R,3S,5S)-2-fluoro-8-azabicyclo[3.2.1]octan-3-yl)(methyl)amino)pyridazin-3-yl)-5-hydroxybenzofuran-2-yl)methanone] |  |  |  |  |  |  |  |  |  | 16 to 50 | 98 | 81 | 95 | 0.5 | 47.3 | 0.01 to 15 | 0.01 to 15 | 0.01 to 15 | 
Cc1nc2cc(-c3ccc(N(C)[C@@H]4C[C@H]5CC[C@H](N5)[C@@H]4F)nn3)c(O)cc2c(=O)n1C [Compound 114A, 7-(6-(((1S,2S,3R,5R)-2-fluoro-8-azabicyclo[3.2.1]octan-3-yl)(methyl)amino)pyridazin-3-yl)-6-hydroxy-2,3-dimethylquinazolin-4(3H)-one] |  |  |  |  |  |  |  |  |  | 0.01 to 15 | 102 | 102 | 133 | 0.28 | 37.8 | 16 to 50 | 0.01 to 15 | 0.01 to 15 | 
Cc1nc2cc(-c3ccc(N(C)[C@H]4C[C@@H]5CC[C@@H](N5)[C@H]4F)nn3)c(O)cc2c(=O)n1C [Compound 114B, 7-(6-(((1R,2R,3S,5S)-2-fluoro-8-azabicyclo[3.2.1]octan-3-yl)(methyl)amino)pyridazin-3-yl)-6-hydroxy-2,3-dimethylquinazolin-4(3H)-one] |  |  |  |  |  |  |  |  |  | 0.01 to 15 | 88 | 94 | 150 | 0.29 | 43 | 0.01 to 15 | 0.01 to 15 | 0.01 to 15 | 
Cc1nc2cc(-c3ccc(N(C)[C@@H]4C[C@H]5CC[C@H](N5)[C@@H]4F)nn3)c(O)cc2s1 [Compound 115A, 5-(6-(((1S,2S,3R,5R)-2-fluoro-8-azabicyclo[3.2.1]octan-3-yl)(methyl)amino)pyridazin-3-yl)-2-methylbenzo[d]thiazol-6-ol] |  |  |  |  |  |  |  |  |  | 16 to 50 | 93 | 78 | 8 | 4.7 | 39.3 | 16 to 50 | 0.01 to 15 | 0.01 to 15 | 
Cc1nc2cc(-c3ccc(N(C)[C@H]4C[C@@H]5CC[C@@H](N5)[C@H]4F)nn3)c(O)cc2s1 [Compound 115B, 5-(6-(((IR,2R,3S,5S)-2-fluoro-8-azabicyclo[3.2.1]octan-3-yl)(methyl)amino)pyridazin-3-yl)-2-methylbenzo[d]thiazol-6-ol] |  |  |  |  |  |  |  |  |  | 0.01 to 15 | 71 | 88 | 7 | 6.4 | 42.6 | 0.01 to 15 | 0.01 to 15 | 0.01 to 15 | 
Cc1nc2cc(O)c(-c3ccc(N(C)[C@@H]4C[C@H]5CC[C@H](N5)[C@@H]4F)nn3)cc2s1 [Compound 116A, 6-(6-(((1S,2S,3R,5R)-2-fluoro-8-azabicyclo[3.2.1]octan-3-yl)(methyl)amino)pyridazin-3-yl)-2-methylbenzo[d]thiazol-5-ol] |  |  |  |  |  |  |  |  |  | 16 to 50 | 86 | 88 | 10 | 4.39 | 42.9 | 51 to 100 | 0.01 to 15 | 0.01 to 15 | 
